Among the data in patent US4271193A, “N1-Benzoyl-N2-phenyldiaminopropanols and pharmaceutical compositions thereof, and processes for their preparation” (Kali-Chemie Pharma GmbH, priority 1978, dated 1981) are LD50 and inhibition in vivo values, retold here.

The structures appear in SMILES notation. Some results are limits rather than exact numbers.

A short description of series [1]: Acute 7-day toxicity after single application per os. To be noted: mouse, in vivo, po, white NMRI-mice, not fed. Here is the method:
The acute 7-day toxicity is determined after a single application per os in white NMRI-mice which had not been fed. The calculation of the LD50 is carried out by probitananalysis by means of electronic data processing (see L. Cavalli-Sforza, Gustav Fischer-Verlag, Stuttgart (1964), Grundbegriffe der Biometrie, p. 153).

Another series deals with stomach epithelium cells. Kind of series: Inhibition of acetylsalicylic acid-induced loss of stomach epithelium cells. The conditions noted are these: Rattus norvegicus; narcotized male SIV50 rats; acetylsalicylic acid as irritant; 3 times 300 mg/kg test compound orally beforehand; read-out: % reduction of loss of epithelium cells in the stomach. The format is in vivo. Here is the method:
2. Inhibition of loss of stomach epithelium cells
The test compound is orally administered to narcotized male rats of the breed SIV50 prior to the beginning of the test. […] In order to determine the induced total loss of cells in the rats stomach, acetylsalicylic acid is administered to animals without prior administration of a protective compound.
In order to prepare the animals for the determination, the trachea is laid free and a tube introduced therein. Subsequently, a laparotomy in the medial part, displacement of the stomach and introducing and fixing of a vein-catheter for recovering stomach juices are effected. By means of the introduced vein-catheter, stomach juice is recovered and then is centrifuged and microscopically analyzed.
The percent reduction of loss of cells induced by the acetylsalicylic acid after previous administration of 3 times 300 mg/kg of the test compound is determined.

The compound `COc1cc(C(=O)NCC(O)CN(C)c2ccc(Cl)cc2)cc(OC)c1OC` (stereo not drawn) [B] showed an LD50 at 168 h in series [1] above 5000 mg/kg. Also, the inhibition in vivo at 300 mg/kg in the series on stomach epithelium cells is 77%.
Consider `COc1cc(C(=O)NCC(O)CNc2c(C)cc(C)cc2C)cc(OC)c1OC` (stereo not drawn) [F], for which the LD50 at 168 h in series [1] is above 1270 mg/kg. Also, the inhibition in vivo at 300 mg/kg with stomach epithelium cells came to 28.4%.
As to `COc1cc(C(=O)NCC(O)CN(C)c2ccc(C(F)(F)F)cc2)cc(OC)c1OC` (stereo not drawn) [C], the LD50 at 168 h in series [1] was above 1390 mg/kg. For the same compound, the inhibition in vivo at 300 mg/kg in the series with stomach epithelium cells amounted to 47.8%.
With `CCCCOc1c(OC)cc(C(=O)NCC(O)CN(C)c2ccc(F)cc2)cc1OC` (stereo not drawn) [I], the LD50 at 168 h in series [1] is above 1370 mg/kg. Also, the inhibition in vivo at 300 mg/kg in the series with stomach epithelium cells turned out to be 27.2%.
In the case of `COc1ccc(C(=O)NCC(O)CN(C)c2ccc(F)cc2)c2c1OCCO2` (stereo not drawn) [H], the LD50 at 168 h in series [1] was above 1230 mg/kg. For the same compound, the inhibition in vivo at 300 mg/kg in the series on stomach epithelium cells came to 48.6%.
The compound `COc1cc(C(=O)NCC(O)CN(C)c2ccc(C)cc2)cc(OC)c1OC` (stereo not drawn) [D] showed an LD50 at 168 h in series [1] above 3160 mg/kg. In the series on stomach epithelium cells, the inhibition in vivo at 300 mg/kg was determined as 47.8%.
Compound `CCN(CC(O)CNC(=O)c1cc(OC)c(OC)c(OC)c1)c1ccc(F)cc1` (stereo not drawn) [E] yielded an LD50 at 168 h in series [1] above 1280 mg/kg. The inhibition in vivo at 300 mg/kg in the series on stomach epithelium cells came out at 43%.
In series [1], `CCOc1cc(C(=O)NCC(O)CN(C)c2ccc(F)cc2)cc(OCC)c1OCC` (stereo not drawn) [G] showed an LD50 at 168 h above 1370 mg/kg. Also, in the series on stomach epithelium cells, the inhibition in vivo at 300 mg/kg was found to be 63%.
In series [1], `COc1cc(C(=O)NCC(O)CN(C)c2ccc(F)cc2)cc(OC)c1OC` (stereo not drawn) [A] had an LD50 at 168 h of 5010 mg/kg. Also, the inhibition in vivo at 300 mg/kg in the series on stomach epithelium cells stood at 53%.
